The text below walks through data of US10189788B2, “Substituted N,2-diarylquinoline-4-carboxamides and the use thereof as anti-inflammatory agents” (BAYER PHARMA AKTIENGESELLSCHAFT, priority 2014, dated 2019).

Series [1] has as its target T1, Human FP Receptor (Homo sapiens (Human), UniProt P43088). The series is described as follows: In vitro test of inhibition of human FP receptor activity, variant B-1B (PGF2α-induced calcium flux in recombinant FP-expressing CHO cells with GCaMP6). Format: cell-based. The note with it: recombinant FP-expressing CHO cells with GCaMP6, calcium flux induced by 3 nM PGF2α, some mean values from multiple determinations. From the text: 470 nm/em. 525 nm in a fluorescence measuring instrument (FLIPR Tetra®, MolecularDevices) for 120 seconds.
Background: Calcium flux is commonly read through the fluorescence of an indicator in the cells.

In series [2] the target is T1, Human FP Receptor. Kind of series: In vitro test of inhibition of human FP receptor activity, variant B-1A (PGF2α-induced calcium flux in FP-expressing CHEM1 cells). Conditions: calcium flux induced by 3 nM PGF2α, Fluo-8, some mean values from multiple determinations. Format: cell-based. An excerpt:
• BSA bovine serum albumin • CRTH2 chemoattractant receptor-homologous molecule expressed on T helper type 2 cells • DMEM Dulbecco's modified Eagle's medium • DMSO dimethyl sulfoxide • DP PGD2 receptor • EC50 half-maximum effective concentration • em. emission • EP PGE2 receptor • ex. excitation • FCS fetal calf serum • FP PGF2α receptor • HEPES 2-[4-(2-hydroxyethyl)piperazin-1-yl]ethanesulfonic acid • IC50 half-maximum inhibitory concentration • IP PGI2 receptor • MES 2-(N-morpholino)ethanesulfonic acid • Pen/Strep penicillin/streptomycin • PGD2 prostaglandin D2 • PGE2 prostaglandin E2 • PGF2α prostaglandin F2α • PGI2 prostaglandin […] • TC tissue culture • TP thromboxane A2 receptor • Tris tris(hydroxymethyl)aminomethane • v/v volume to volume ratio (of a solution) • w/w weight to weight ratio (of a solution) B-1.

The conditions of series [3]: eliminated renally; cited from earlier work.
The conditions of series [4]: unstable molecule, rearranged enzymatically in lung, liver and kidney to 15-ketodihydro-PGF2α; cited from earlier work.

T1 sequence (P43088 whole entry): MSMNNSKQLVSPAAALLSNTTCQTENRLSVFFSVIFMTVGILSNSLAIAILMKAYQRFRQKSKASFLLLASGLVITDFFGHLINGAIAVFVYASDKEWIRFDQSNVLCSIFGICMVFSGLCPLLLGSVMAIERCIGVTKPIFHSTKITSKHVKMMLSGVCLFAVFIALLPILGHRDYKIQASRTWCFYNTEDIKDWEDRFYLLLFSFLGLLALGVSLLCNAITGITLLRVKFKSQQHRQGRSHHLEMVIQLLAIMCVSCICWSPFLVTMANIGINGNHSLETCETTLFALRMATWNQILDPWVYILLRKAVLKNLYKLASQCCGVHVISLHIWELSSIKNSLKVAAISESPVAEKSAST

With `Cc1c(-c2ccccc2)nc2ccc(Br)cc2c1C(=O)Nc1ccc(C(=O)NS(=O)(=O)N(C)C)cc1F` [Example 68, 6-Bromo-N-{4-[(dimethylsulfamoyl)carbamoyl]-2-fluorophenyl}-3-methyl-2-phenylquinoline-4-carboxamide], the IC50 (commonly the concentration that inhibits the measured activity by half) on Human FP Receptor [1] is 182 nM; on Human FP Receptor [2] it was 318 nM.

`Cc1c(-c2ccccc2)nc2ccc(Br)cc2c1C(=O)Nc1ccc(C(=O)O)cc1F` [Example 69, Potassium 4-{[(6-bromo-3-methyl-2-phenylquinolin-4-yl)carbonyl]amino}-3-fluorobenzoate]: the 50% inhibitory concentration (IC50) on Human FP Receptor [1] was 59 nM; at Human FP Receptor [2], 104 nM. As to Bleomycin, the half-life entry in series [3] is given as “about 3 hours”. Regarding Prostaglandin F2alpha [PGF2α], the t1/2 in series [4] is below 1 min.
